Counter-ions that a name gives are not always drawn.
How the values were obtained:
[1] = Solid-state physical stability: PXRD after the DVS run / exposure to high RH; assay type: physicochemical; conditions: for physical stability / structural change on water sorption (in words): DVS 0-90% RH, PXRD after the run
Procedure: (§1) The hygroscopicity of the products of Reference Example 1 and Example 3 were tested using Dynamic Vapor Sorption (DVS). Surface Measurement Systems Ltd. Dynamic Vapour Sorption Advantage Equipment was used employing a 10% RH change at 25° C. starting at 40% RH and looping from 0% RH to 90% RH and back to 0% RH twice. […] Two full cycles from 0% RH to 90% RH were carried out. The percent mass increase with respect to the sample mass of the first exposure to 0% RH (dry weight) was calculated and is presented in Table 7. […] Also, a decrease in mass is noted at 80% RH consistent with a solid-state change, occurs at these conditions.

[2] = Hygroscopicity by Dynamic Vapor Sorption (DVS); assay type: physicochemical; conditions: 25° C.
Procedure: as §1

With `Cc1ncnc2c1ccn2[C@@H]1C[C@H](Oc2cc(C(F)F)c(F)c3c2CNCC3)[C@@H](O)[C@H]1O` [Phosphate, (1S,2S,3S,5R)-3-((6-(difluoromethyl)-5-fluoro-1,2,3,4-tetrahydroisoquinolin-8-yl)oxy)-5-(4-methyl-7H-pyrrolo[2,3-d]pyrimidin-7-yl)cyclopentane-1,2-diol monophosphate hydrate] the “physical stability / structural change on water sorption (in words)” value ([1]; listed as Example 3 phosphate salt, monophosphate hydrate) was “no structural changes caused by the water sorption”, the “% Mass-Ref Dry mass” value ([2]; 10% RH, monophosphate hydrate) was 3.4% and the “% Mass-Ref Dry mass” value ([2]; 20% RH, monophosphate hydrate) was 3.7%. The “% Mass-Ref Dry mass” value ([2]; 30% RH, monophosphate hydrate) was 3.9%, the “% Mass-Ref Dry mass” value ([2]; 40% RH, monophosphate hydrate) was 4.1% and the “% Mass-Ref Dry mass” value ([2]; 50% RH, monophosphate hydrate) was 4.3%. The “% Mass-Ref Dry mass” value ([2]; 60% RH) was 4.5%, the “% Mass-Ref Dry mass” value ([2]; 70% RH, listed as Example 3 phosphate salt, monophosphate hydrate) was 4.57% and the “% Mass-Ref Dry mass” value ([2]; 70% RH, monophosphate hydrate) was 4.6%. For the same molecule, the “% Mass-Ref Dry mass” value ([2]; 80% RH, monophosphate hydrate) was 4.7% and the “% Mass-Ref Dry mass” value ([2]; 90% RH, monophosphate hydrate) was 4.8%.

With `Cc1ncnc2c1ccn2[C@@H]1C[C@H](Oc2cc(C(F)F)c(F)c3c2CNCC3)[C@@H](O)[C@H]1O` [di HCl, (1S,2S,3S,5R)-3-((6-(difluoromethyl)-5-fluoro-1,2,3,4-tetrahydroisoquinolin-8-yl)oxy)-5-(4-methyl-7H-pyrrolo[2,3-d]pyrimidin-7-yl)cyclopentane-1,2-diol (di) hydrochloride] the “physical stability / structural change on water sorption (in words)” value ([1]; listed as di-HCL salt, hydrochloride) was “not physically stable”, the “relative humidity at which the amorphous salt crystallizes” value ([1]; PXRD after DVS run, 25° C.) was ≥ 80 % RH and the “% Mass-Ref Dry mass” value ([2]; 0% RH, relative to mass at first exposure to 0% RH) was 0.0%. The “hygroscopicity (in words)” value ([2]; 0-90% RH) was “very hygroscopic”, the “% Mass-Ref Dry mass” value ([2]; 10% RH, hydrochloride) was 2.9% and the “% Mass-Ref Dry mass” value ([2]; 20% RH, hydrochloride) was 4.0%. The “% Mass-Ref Dry mass” value ([2]; 30% RH, hydrochloride) was 4.9%, the “% Mass-Ref Dry mass” value ([2]; 40% RH, hydrochloride) was 6.0% and the “% Mass-Ref Dry mass” value ([2]; 50% RH, hydrochloride) was 7.6%. The “% Mass-Ref Dry mass” value ([2]; 60% RH, hydrochloride) was 10.4%, the “% Mass-Ref Dry mass” value ([2]; 70% RH, hydrochloride) was 14.7% and the “% Mass-Ref Dry mass” value ([2]; 70% RH, listed as diHCl salt, hydrochloride) was 14.7%. For the same molecule, the “% Mass-Ref Dry mass” value ([2]; 80% RH, hydrochloride) was 12.0% and the “% Mass-Ref Dry mass” value ([2]; 90% RH, hydrochloride) was 12.0%.
